The values that follow come from patent publication US12486246B2, “Replication protein A (RPA)-DNA interaction inhibitors” (THE TRUSTEES OF INDIANA UNIVERSITY, priority 2019, dated 2025).

Series [1] has as its system H460 NSCLC cells. Nature of the series: Combination index (Chou-Talalay), CCK-8 assay. The following applies: CI <1.0 = synergy. In kind it is cell-based. The procedure: (§1) Cell survival was determined by CCK-8 viability assay and/or clonogenic survival assay in 96 well plates or 24 well plates, respectively and combination index (CI) analysis of drug-drug interactions determined by Chou-Talalay analysis as we have previously described. • 1) CCK-8 metabolic assay: Cells were plated (2500 cells/well) in 96-well plate and allowed to grow for at least 18 hours in at 37° C. in the presence of 5% CO2 before treatment with inhibitor for 48 hours. CCK-8 solution (Dojindo) was added to 10% of the total media volume and after 1-4 hours of incubation absorbance at 450 nm was determined using BioTek® Synergy™ H1 hybrid multi-mode microplate reader • 2) Clonogenic survival assay: Cells were plated in a 24 well (20,000 cells/well) plate, incubated for at least 18 hours and then treated with inhibitor. After 48 hours of treatment, the cells are re-plated in 10 cm dishes (500 cells/dish) and incubated for 8-10 days to allow colony formation. Plates are washed with PBS, fixed with glutaraldehyde and stained with crystal violet. Images of the stained colonies were captured with a Fuji LAS-3000 CCD system then counted using OpenCFU software. Viability is determined as a percent of vehicle controls and plotted versus drug concentration. • 3) Assessment of synergy via combination index (CI): In the combination index studies, cells (H460 or SKGT4) were treated with RPA inhibitor and Pt/etoposide/bleomycin/taxol/DDR inhibitor alone as well as the combination of both—the inhibitor and the DNA damaging chemotherapeutic agent/DDR inhibitor. The range of treatment was dependent on the IC50 of each inhibitor/drug. If the IC50 was X, then the cells were treated at a range of 0.04× to 5× concentration in a CCK-8 metabolic assay. The kill curves from both the single agent treatments as well as the combination treatment were used in a Chou-Talalay based method to determine the combination index (CI) at different fractions of cells affected.^40 A CI>1.0 indicates antagonism between the two agents, while a CI<1.0 indicates synergy.
Inhibiting RPA can act synergistically with DNA damaging therapeutics including cisplatin and etoposide (FIG. 4C). In these studies, we used the Chou-Talalay method, which provides a combination index (CI) that quantifies synergistic activity for each drug combination. […] The synergistic activity of compounds described herein with DNA damaging agents may be explained by RPA's role in the DNA damage response and signaling.
On the technique in general: Tetrazolium dyes change colour on reduction, which living cells bring about.

Series [2] can be described thus: Aqueous solubility as a function of pH. Format: physicochemical. The settings on record: thermodynamic from solid. How it is done:
Aqueous solubility was determined by suspending compound in un-buffered water with stirring. Insoluble material was removed by sedimentation or filtration and soluble compound quantified by absorbance spectroscopy and LC/MS. pH dependence was determined by suspending compound in 10 mM citrate buffer at pH 4.0 or 10 mM phosphate […] as described above in the description.
The morpholine ring is commonly introduced into solvent exposed regions as a privileged solubilizing group to improve solubility or pharmacokinetic properties including metabolic stability of a prospective drug scaffold which is exemplified by many FDA approved drugs. Modifications on Ring A had less of an effect than the morpholino modifications at the alkyl carboxylic acid side chain. To determine the effect of pH on solubility, we prepared solution at 1 mM in citrate buffer at pH 4, phosphate buffer at pH 7 and carbonate buffer at pH 9.5.

Series [3] concerns the target T1, full length heterotrimeric human RPA (Homo sapiens, UniProt P27694).
T1 construct: Full length, heterotrimeric human RPA (fl-RPA) and DBD-A/B constructs were expressed and purified; made in house
Briefly: Electrophoretic mobility shift assay (EMSA), binding of full length human RPA to ssDNA. The settings on record: full length human RPA binding to DNA, mean ± SD of minimum triplicate experiments. The procedure: (§2) Full length, heterotrimeric human RPA (fl-RPA) and DBD-A/B constructs were expressed and purified according to previously described protocol. The DBD-A/B construct was expressed as a His6-RPA181-422 fusion protein. E. coli BL21 (DE3) cells in log growth were induced for 3 h with 0.5 mM IPTG at 37° C. The cells were lysed via sonication in buffer containing 20 mM Tris pH 7.5, 500 mM NaCl, 10 mM b-mercaptoethanol, supplemented with 25 μg/mL lysozyme, 1 μg/mL leupeptin, 1 μg/mL pepstatin and 0.5 mM PMSF. The lysate was applied to a 20 mL phosphocellulose column equilibrated in the same buffer and the flow-through material collected, brought to 5 mM Imidazole and loaded onto a 2 ml Ni-NTA column. The column was washed and proteins eluted on with a gradient from 50 mM to 500 mM imidazole. Fractions were assessed by EMSA and SDS-PAGE and DBD-A/B containing fraction were pool, dialyzed against buffer containing 50 mM HEPES pH 7.0, 500 mM NaCl and 1 mM DTT and stored at −80° C.
(§3) EMSAs were carried out using previously described procedure with the following modification. EMSA reactions (20 μL) were performed with 50 nM fl-RPA and 2.5 nM 5′ [^32P]-labeled 34-base DNA in buffer containing 20 mM HEPES (pH 7.8), 1 mM DTT, 0.001% NP-40, 50 mM NaCl. Chemical compounds were suspended in DMSO and DMSO concentration in the reaction mixture was kept constant at 2% or below 5%. RPA was incubated with inhibitor or DMSO control in reaction buffer for 30 min before the addition of DNA. Reactions were incubated for 5 min at room temperature and products separated via 6% native polyacrylamide gel electrophoresis. The bound and unbound fractions were then quantified by phosphor-imager analysis using ImageQuant software (Molecular Dynamics, CA) and IC50 values calculated by non-linear regression using SigmPlot (Sysat). For EMSA reactions with RPA DBD-A/B, 150 nM DBD-A/B was used, and electrophoresis was performed at 4° C. All other conditions were identical to those described for the full-length RPA.
Purified full length heterotrimeric human RPA protein was used to screen a series of analogs in an electrophoretic mobility shift assay (EMSA) measuring direct binding to a ss-DNA substrate. Quantification of the EMSA data and additional concentration dependent analysis to measure IC50 values of newly synthesized analogs provided potential insight into the structure-activity relationships (Table 1 and 2). […] Fluorine and trifluoromethyl substituents were included in pyridinyl compounds 28-29.

Series [4] concerns H460 NSCLC cells. Briefly: Cellular uptake measurement by LC/MS. In kind it is in vitro ADME. The settings on record: 20 μM, 4 hours, 37° C. How it is done: All cells were grown as monolayers at 37° C. with 5% CO2 in media containing 20% fetal bovine serum and 0.1% pen/strep. Cellular uptake was assessed in both H460 NSCLC and SKGT4 esophageal adenocarcinoma cells. Briefly, cells were plated in 35 mm dishes at 1×10^6 cells well and incubated overnight. Compounds were added to the medium at a concentration of 20 μM incubation continued for 4 hours. Media was removed and cells washed 3× with PBS. 1 mL of methanol was added per well and cells agitated overnight at 4° C. The methanol was collected, wells washed with an additional 1 ml of methanol and pooled. The compounds were dried under vacuum, suspended in methanol and quantified by LC/MS.
Cellular uptake of our compounds in H460 NSCLC cells was analyzed (FIG. 3B). Initially, compounds were first solubilized in 100% DMSO then diluted in aqueous buffer of media to achieve the desired concentrations, the final DMSO concentration was 1% or less in all experiments. Cells were treated with a fixed concentration (20 μM) for 4 hours at 37° C. The intracellular drug concentrations were determined following extraction with ice cold MeOH and analysis via LC and LC/MS. […] Similar uptake data was also obtained in the SKGT4 esophageal adenocarcinoma cell line.

For series [5], the system named is sonicated salmon sperm DNA. Briefly: Fluorescent intercalator displacement (FID) assay, SYBR-Green. In kind it is binding. The settings on record: 25 mM MOPS pH 6.5. How it is done:
The analysis of compound interactions with DNA was determined by inhibition of SYBR-Green intercalation into DNA as we have previously described. Briefly, reactions were performed in 25 mM MOPS (pH 6.5) containing sonicated salmon sperm DNA (8.29 ng/μL), SYBR-Green, and the indicated concentrations of RPA inhibitors. Reactions were conducted in black 96-well plates. Doxorubicin, a known noncovalent DNA binding chemotherapeutic, was used as a positive control. Fluorescence was measured using a BioTek® Synergy™ H1 hybrid multi-mode microplate reader with an excitation wavelength of 485 nm, emission wavelength of 528 nm, and a read height of 7 mm. Data were collected using BioTek® Gen5™ reader software. Reactions were incubated a maximum of 5 min before measurements were collected.
In order to probe the potential role of DNA intercalation as a mechanism for RPA inhibition, compounds 19, 23, 26, 27, 43 and 45 were analyzed using FID assay along with doxorubicin (Dox) as a positive control. […] In addition, direct binding of 9 derivatives to the target protein was assessed using a differential scan fluorimetry (DSF) assay. This assay assesses the melting profile of a protein at increasing temperatures via fluorescent dye binding. The direct interaction of a small molecule to the target protein can either increase or decrease the melting temperature (Tm) of the target depending on the specific protein and their interactions. […] Heparin sulfate, a known RPA interacting molecule often used in the purification of the protein was used as a control. […] (data not shown). […] (FIG. 1B).

For series [6], the system named is H460 NSCLC cells. Briefly: Cell survival, CCK-8 metabolic assay, single agent. Format: cell-based. The procedure:
as §1, with “After 48 hours of treatment, the cells are re-plated in 10 cm dishes (500 cells/dish) and incubated for 8-10 days to allow colony formation. Plates are washed with PBS, fixed with glutaraldehyde and stained with crystal violet.” left out, “The range of treatment was dependent on the IC50 of each inhibitor/drug. If the IC50 was X, then the cells were treated at a range of 0.04× to 5× concentration in a CCK-8 metabolic assay. The kill curves from both the single agent treatments as well as the combination treatment were used in a Chou-Talalay based method to determine the combination index (CI) at different fractions of cells affected.^40 A CI>1.0 indicates antagonism between the two agents, while a CI<1.0 indicates synergy.” left out

The target of series [7] is T2, RPA DBD-A/B construct (His6-RPA181-422 of RPA70) (Homo sapiens, UniProt P27694).
T2 construct: The DBD-A/B construct was expressed as a His6-RPA181-422 fusion protein; His6 (N); made in house; host or cells: E. coli BL21 (DE3)
Nature of the series: EMSA, binding of RPA DBD-A/B construct to DNA. The settings on record: mean ± SD, read-out: RPAA/B IC50. The procedure: as §2, §3
These domains are compact modular domains populated with hydrophobic and basic DNA binding amino acid residues and have great potential to influence binding of the compounds to the RPA70 subunit. RPA DBD-A/B construct was purified via Ni-affinity chromatography. The activity of compounds 23-27 was evaluated on purified DBD-A/B construct using EMSA.

By solubility is commonly meant the dissolved amount per volume that the medium holds.

Molecules are shown by their SMILES. Values after ≈ are worked out from the molar mass of the structure shown.

T1 sequence (P27694 whole entry): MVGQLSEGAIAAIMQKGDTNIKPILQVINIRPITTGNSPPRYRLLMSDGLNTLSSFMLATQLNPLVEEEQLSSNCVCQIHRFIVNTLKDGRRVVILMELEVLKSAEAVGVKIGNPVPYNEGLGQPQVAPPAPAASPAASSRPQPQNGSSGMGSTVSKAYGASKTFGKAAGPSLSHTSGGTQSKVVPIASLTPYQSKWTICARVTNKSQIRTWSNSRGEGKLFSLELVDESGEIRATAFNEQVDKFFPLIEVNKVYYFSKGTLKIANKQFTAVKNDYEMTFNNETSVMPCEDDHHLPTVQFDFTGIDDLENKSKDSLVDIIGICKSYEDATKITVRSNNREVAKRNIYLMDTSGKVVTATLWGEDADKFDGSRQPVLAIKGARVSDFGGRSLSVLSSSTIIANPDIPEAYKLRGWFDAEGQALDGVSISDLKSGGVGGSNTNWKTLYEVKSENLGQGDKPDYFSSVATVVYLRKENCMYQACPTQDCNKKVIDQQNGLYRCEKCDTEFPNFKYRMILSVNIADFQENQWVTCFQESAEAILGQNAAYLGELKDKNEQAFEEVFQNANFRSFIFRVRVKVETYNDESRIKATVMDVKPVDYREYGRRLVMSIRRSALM
T1 sequence (P15927 whole entry partner): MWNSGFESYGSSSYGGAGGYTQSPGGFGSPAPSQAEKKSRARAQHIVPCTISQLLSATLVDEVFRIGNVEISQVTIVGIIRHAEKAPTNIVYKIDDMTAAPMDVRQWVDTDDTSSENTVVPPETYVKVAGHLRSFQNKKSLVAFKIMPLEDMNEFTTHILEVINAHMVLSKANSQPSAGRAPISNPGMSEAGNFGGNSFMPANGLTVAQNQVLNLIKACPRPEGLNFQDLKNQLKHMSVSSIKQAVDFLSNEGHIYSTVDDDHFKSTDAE
T1 sequence (P35244 whole entry partner): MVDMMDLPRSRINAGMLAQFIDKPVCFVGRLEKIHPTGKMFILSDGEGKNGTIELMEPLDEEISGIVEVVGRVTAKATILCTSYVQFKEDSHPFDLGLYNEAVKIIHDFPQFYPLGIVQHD
T2 sequence (P27694 181-422): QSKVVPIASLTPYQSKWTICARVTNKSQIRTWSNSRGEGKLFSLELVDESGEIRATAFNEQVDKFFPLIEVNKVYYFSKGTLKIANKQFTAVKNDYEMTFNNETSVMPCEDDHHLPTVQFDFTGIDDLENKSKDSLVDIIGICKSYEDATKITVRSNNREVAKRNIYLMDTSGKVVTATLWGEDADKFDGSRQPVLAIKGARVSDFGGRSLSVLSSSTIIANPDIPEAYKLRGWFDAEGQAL

Regarding `CCOc1ccc2cc(C3CC(c4ccc(I)cc4)=NN3C(=O)CCCC(=O)O)c(Cl)nc2c1` (centres unmarked) [Compound 9, 5-(5-(2-Chloro-7-ethoxyquinolin-3-yl)-3-(4-iodophenyl)-4,5-dihydro-1H-pyrazol-1-yl)-5-oxopentanoic acid], in series [1], the “synergy (combination index) with DNA damaging therapeutics cisplatin and etoposide” value is “showed synergy but not as robust of activity as compound 8”. Besides, the solubility in series [2] (aqueous buffer at pH 9.5, pH 9.5, aqueous buffer) was found to be 112.5 ± 0.74 µM (≈ 66.6 µg/mL); in series [2] (aqueous buffer, pH 4, citrate buffer), 0.76 ± 0.35 µM (≈ 0.45 µg/mL); in series [2] (aqueous buffer, pH 7, phosphate buffer) it was 3.31 ± 0.36 µM (≈ 1.96 µg/mL). Further, in series [3], the IC50 worked out at 15.3 ± 1.42 µM. For the same molecule, the “cellular uptake (in words)” value in series [4] is “relatively poor uptake”.
Consider `CCOc1ccc2cc(C3CC(c4ccc(-c5ccc(Cl)nc5)cc4)=NN3C(=O)CCCC(=O)O)c(Cl)nc2c1` (centres unmarked) [Compound 26, 5-(5-(2-Chloro-7-ethoxyquinolin-3-yl)-3-(4-(6-chloropyridin-3-yl)phenyl)-4,5-dihydro-1H-pyrazol-1-yl)-5-oxopentanoic acid], for which, in series [5], the “DNA binding activity (displacement of SYBR-Green intercalator)” value is reported as “No significant DNA binding activity”. Moreover, the IC50 in series [3] was 1.61 ± 0.04 µM; in series [7], 11.7 ± 0.3 µM. The “cellular uptake (in words)” value in series [4] is reported as “increased uptake”. Besides, the “cellular anticancer activity compared to compound 9” value in series [6] was “increase in cellular anticancer activity”.
